Data from patent US12723261B2, “Process for producing a plurality of Neddylation site modified AAV2 vectors” (INDIAN INSTITUTE OF […], priority 2018, dated 2026).

Test system: HeLa cells
Test: In vitro drug assay: scAAV2-EGFP transduction after pre-treatment with Neddylation inhibitor
Type: cell-based
Settings: versus control cells
Method: Approximately 3×10^4 HeLa cells were seeded in 24 well plate and incubated for 12 hours in Iscove's-modified Dulbecco's medium (IMDM) with 10% fetal bovine serum in humidified conditions and 5% CO2. Cells were either mock treated or treated with a Neddylation inhibitor, MLN4924 (Calbiochem, Merck, Kenilworth, USA) at a concentration of 1 μM and incubated at 37° C. for 3 hours. After incubation, cells were infected with scAAV2-EGFP vectors at a multiplicity of infection (MOI) of 5000 for 3 hours in IMDM at 37° C. Forty-eight hours later, the transgene (GFP) expression was quantified by flow cytometry (BDaccuri, BD Biosciences, Franklin Lakes, USA).
To determine the role of cellular Neddylation during AAV2 infection, a small molecular inhibitor of Neddylation being used herein, MLN4924. The MLN4924 prevents the formation of the NEDD8 and Neddylation activating enzyme (NAE1) protein complex. The HeLa cells were pre-treated for three hours, after which the HeLa cells were infected with scAAV2-EGFP. […] Further studies such as specific targeting of Neddylation pathway genes by RNA interference are warranted to understand the mechanism involved in this process. […] Forty-eight hours later, the transgene (GFP) expression was quantified by flow cytometry. […]

NS(=O)(=O)OC[C@@H]1C[C@@H](n2ccc3c(N[C@H]4CCc5ccccc54)ncnc32)C[C@@H]1O [MLN4924]
improvement of AAV transduction by Neddylation inhibition: 50%
